# Assays:
# [1] = tested on: Fnk, JAB, LIX, bcl-3 and SHP; assay: Liver expression of Fnk, JAB, LIX, bcl-3 and SHP by realtime PCR after estrogen receptor ligand pretreatment and IL-1β; settings: mouse liver, realtime PCR
# Method in brief: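 Mice got vehicle or EE at 100 ug/kg/day before IL-1β; in C57BL/6 wild-type, ERαKO and 129 ERβKO mice, EE at 10 ug/kg/day for 5 days preceded 1 hour IL-1β. Liver RNA from each animal was quantified by realtime PCR (mean +/−SEM), with vehicle+PBS set to 1.0.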
# mouse liver = settings: GeneChip, 1 h after 20 ug/kg IL-1β ip, pretreated 5 days with vehicle or 100 ug/kg/day EE sc, vehicle+PBS=1.0;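 note: ovariectomized C57BL/6 mice, liver polyA RNA profiled, values are fold expression relative to vehicle plus PBS, averaged over two independent experiments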
# Description: Experiments were conducted to evaluate IL-1β regulation of gene expression in the mouse liver. Ovariectomized C57BL/6 mice were pretreated by subcutaneous administration of either corn oil/ethanol vehicle or 100 ug/kg/day ethynylestradiol (EE) for 5 days. On the fifth day, the mice received an intraperitoneal injection of either PBS or 20 ug/kg IL-1β in PBS. One hour later the livers were removed and polyA RNA was prepared. Global gene expression was determined by analysis using murine 11K GeneChips from Affymetrix. For each gene, the level of expression in animals receiving vehicle pretreatment plus PBS was defined as 1.0, with the expression levels in the mice receiving vehicle pretreatment±IL-1β or EE pretreatment±IL-1β defined relative to this. The results shown are the mean from two independent experiments.
# The fold regulation of each gene is plotted for animals receiving vehicle pretreatment x-axis) vs. animals receiving pretreatment with EE (y-axis). Genes with IL-1β induction unaffected by EE pretreatment would lie along the dotted diagonal.
# SHP = assay: IL-1β inhibition of SHP expression in HepG2 cells (realtime PCR); format: cell-based, human; settings: 100 U/ml IL-1β, 3 and 6 hours, p<0.05 vs time 0
# Description: Referring to FIG. 2, IL-1β inhibition of SHP expression in HepG2 cells was examined as follows. IL-1β is typically not associated with repression of gene expression. To verify a direct IL-1β mediated repression of SHP expression, HepG2 cells were treated with 100 U/ml IL-1β. Total RNA prepared at various times afterward was analyzed for SHP expression by using realtime PCR. […] This was not due to a general decrease in cell viability as SHP mRNA levels returned to baseline levels by 9 hours following IL-1β treatment.
# HepG2 cells = assay: Gene expression in HepG2 cells treated 24 hr with CDCA or GW 4064; format: cell-based, human
# Description: HepG2 cells were maintained in growth media at 37° C. in a 5% CO2 incubator. The cells were seeded in deficient growth media (phenol red free DMEM (Gibco BRL) supplemented with heat-inactivated 10% FBS, 1% Glutamax, 1% MEM non-essential amino acids, 100 U/ml penicillin and 100 μg/ml streptomycin) at 4-5×10^5 cells per well in a 6 well dish (Falcon). The cells were then placed into serum deficient media for 24 hr before addition of the compounds for an additional 24 hrs. The cells were then harvested for RNA analysis.
# To further investigate the possibility that bile acid signaling through FXR can promote inflammatory gene expression, experiments were conducted in the hepatocyte cell line, HepG2. […] HepG2 cells express a number of inflammatory genes including ICAM-1 and M-CSF constitutively (Stonans et al '99 Cytokine 11:151). […] As positive controls, the induction of SHP mRNA and the repression of cyp7a were confirmed.
# Referring to FIG. 24a-b, HepG2 cells were treated for 24 hr with increasing concentrations of chenodeoxycholic acid (CDCA). […] Data are reported as mean±SEM for each group. C57BL/6 mice. […] Data are reported as mean±SEM for each group.
# human ICAM-1 promoter = assay: ICAM-1 promoter luciferase reporter in HepG2 cells transfected with human FXR and RXRα; format: cell-based; settings: HepG2 transfections, GW 4064 1 uM, 24 or 48 hr; required proximal NF-κB response element
# From the text: Referring to FIG. 26, HepG2 cells were transfected with the human FXR and RXRα expression plasmid and luciferase reporter plasmids containing the proximal promoter region of the human SHP (−360 to +40) or sequential deletions of the human ICAM-1 promoter (−1108 or −810 to +18). […] Data represent the mean+S.D. of three independent transfections.
# ICAM-1 = assay: Hepatic mRNA levels after single oral dose of GW 4064 in C57BL/6 mice; format: in vivo, mouse; settings: single oral dose 50 mg/kg, hepatic mRNA (FIG. 25)
# [2] = HepG2, 24 hr, CDCA 1-100 uM or GW 4064 1-1000 nM
compound,measurement,setting,value
"IL-1: cytokine IL-1β, injected intraperitoneally in PBS or added to HepG2 cells",IL-1 repression of SHP expression,[1]; vehicle treated or 100 ug/kg/day EE treated animals,86%
same,IL-1 induction of bcl-3,"[1]; vehicle treated or 100 ug/kg/day EE treated mice, IL-1 vs PBS",6.2 fold
same,IL-1 Induction A20 (Tnfaip3),mouse liver,14.0 fold
same,"IL-1 Induction B94, TNF-α induced protein 2 (Tnfaip2)",mouse liver,17.1 fold
same,IL-1 Induction C/EBPδ (Cebpd),mouse liver,7.0 fold
same,IL-1 Induction CD14 (Cd14),mouse liver,3.5 fold
same,IL-1 Induction CD83 (Cd83),mouse liver,6.2 fold
same,IL-1 Induction E-selectin (Sele),mouse liver,7.2 fold
same,IL-1 Induction Ets transcription factor ELF3 (Elf3),mouse liver,22.5 fold
same,IL-1 Induction G0/G1 switch gene 2 (G0s2),mouse liver,0.11 fold
same,IL-1 Induction GTP binding protein IRG-47 (lfi47),mouse liver,5.4 fold
same,IL-1 Induction Gadd45 (Gadd45a),mouse liver,10.9 fold
same,IL-1 Induction Glvr-1 (Slc20a1),mouse liver,3.9 fold
same,IL-1 Induction H-2Ld (H-2L),mouse liver,8.2 fold
same,IL-1 Induction ICAM-1 (lcam1),mouse liver,40.9 fold
same,IL-1 Induction IL-1m (Il1m),mouse liver,23.6 fold
same,IL-1 Induction IL-15 receptor (Il15ra),mouse liver,9.2 fold
same,IL-1 Induction IxBa (Nfkbia),mouse liver,8.7 fold
same,"IL-1 Induction JAB, suppressor of cytokine signaling 1 (Cish1)",mouse liver,7.3 fold
same,IL-1 Induction JE/MCP-1 (Scya2),mouse liver,82.3 fold
same,IL-1 Induction LIX (Scyb5),mouse liver,5.2 fold
same,IL-1 Induction LPS inducible C—C chemokine receptor related (AF030185),mouse liver,6.3 fold
same,IL-1 Induction M-CSF (Csf1),mouse liver,32.8 fold
same,IL-1 Induction MARCKS-like macrophage protein (Mlp),mouse liver,4.8 fold
same,IL-1 Induction MIG (Scyb9),mouse liver,15.0 fold
same,IL-1 Induction MIP2 (Scyb2),mouse liver,60.1 fold
same,IL-1 Induction MIP-1 gamma (Scya9),mouse liver,2.9 fold
same,IL-1 Induction MyD118 (GADD45b),mouse liver,24.3 fold
same,IL-1 Induction NF-E2 related factor 2 (NRF2) (Nfe212),mouse liver,5.2 fold
same,IL-1 Induction NF-kappa-B p105 (Nfkb1),mouse liver,13.8 fold
same,IL-1 Induction NFkB p100 (Nfkb2),mouse liver,4.0 fold
same,IL-1 Induction PAI-1 (Serpine1),mouse liver,37.6 fold
same,IL-1 Induction PDGF-induced KC (Gro1),mouse liver,7.3 fold
same,IL-1 Induction PIM-1 protein kinase (Pim1),mouse liver,2.4 fold
same,IL-1 Induction SHP (NrGb2),mouse liver,0.23 fold
same,IL-1 Induction T-cell death associated gene (Tdag),mouse liver,2.5 fold
same,IL-1 Induction T-cell specific GTPase (Tgtp),mouse liver,4.4 fold
same,IL-1 Induction TGFB inducible early growth response (Tieg),mouse liver,0.31 fold
same,IL-1 Induction Ubiquitin-conjugating E2 enzyme variant 2 (Ube2v2),mouse liver,5.0 fold
same,IL-1 Induction VCAM-1 (Vcam1),mouse liver,5.2 fold
same,"IL-1 Induction adrenergic receptor, beta 2 (Adrb2)",mouse liver,2.9 fold
same,IL-1 Induction adrenomedullin (Adm),mouse liver,11.3 fold
same,IL-1 Induction apoptosis inhibitor 1 (Birc2),mouse liver,12.2 fold
same,IL-1 Induction apoptosis inhibitor 2 (Birc3),mouse liver,9.6 fold
same,IL-1 Induction bcl-3 (Bcl3),mouse liver,11.6 fold
same,IL-1 Induction c-JUN (Jun),mouse liver,4.8 fold
same,IL-1 Induction calcium binding protein A6 (S100a6),mouse liver,2.4 fold
same,IL-1 Induction calgranulin A (S100A8),mouse liver,10.4 fold
same,IL-1 Induction calgranulin B (S100a9),mouse liver,12.5 fold
same,IL-1 Induction cytokine-inducible kinase Fnk (Cnk),mouse liver,2.9 fold
same,IL-1 Induction gly96 (ler3),mouse liver,42.1 fold
same,IL-1 Induction growth factor receptor bound protein 7 (Grb7),mouse liver,0.27 fold
same,IL-1 Induction guanylate nucleotide binding protein 2 (Gbp2),mouse liver,6.5 fold
same,IL-1 Induction helix-loop-helix factor HES-1 (Hes1),mouse liver,0.09 fold
same,IL-1 Induction heme oxygenase 1 (Hmox1),mouse liver,5.5 fold
same,IL-1 Induction hsp68 (Hsp70-3),mouse liver,6.3 fold
same,IL-1 Induction inducible 6-phosphofructo-2-kinase (AA163244),mouse liver,4.0 fold
same,IL-1 Induction inhibitor of DNA binding 3 (idb3),mouse liver,6.0 fold
same,IL-1 Induction insulin-like growth factor binding protein 1 (lgfbp1),mouse liver,4.0 fold
same,IL-1 Induction intercrine (Scya7),mouse liver,12.4 fold
same,IL-1 Induction interferon regulatory factor 1 (Irf1),mouse liver,10.5 fold
same,IL-1 Induction junB (Junb),mouse liver,2.9 fold
same,IL-1 Induction lipocalin 2 (Lcn2),mouse liver,5.5 fold
same,IL-1 Induction lkB-beta (Nfkbib),mouse liver,4.0 fold
same,IL-1 Induction m-myc (Myc),mouse liver,3.0 fold
same,IL-1 Induction macrophage interferon inducible protein 10 (Scyb10),mouse liver,50.1 fold
same,IL-1 Induction metalloproteinase-disintegrin (Adamts1),mouse liver,2.7 fold
same,IL-1 Induction molecule possessing ankyrin-repeats induced by LPS (aa614971),mouse liver,22.7 fold
same,IL-1 Induction myocyte-enriched calcineurin interactin protein (Dscrl),mouse liver,11.1 fold
same,IL-1 Induction noctumin (Ccr4),mouse liver,7.7 fold
same,IL-1 Induction p65 NF-kappa B (Rela),mouse liver,2.5 fold
same,IL-1 Induction phospholipid scramblase 1 (Plscr1),mouse liver,4.4 fold
same,IL-1 Induction protein tyrosine phosphatase 4a1 (Ptp4a1),mouse liver,2.0 fold
same,IL-1 Induction regulator for ribosome resistance homolog (Rrr),mouse liver,2.8 fold
same,IL-1 Induction relB (Relb),mouse liver,7.0 fold
same,IL-1 Induction rhoB (Arhb),mouse liver,30.0 fold
same,IL-1 Induction serum amyloid A 3 (Saa3),mouse liver,37.4 fold
same,IL-1 Induction serum amyloid A 4 (Saa4),mouse liver,2.5 fold
same,IL-1 Induction suppressor of cytokine signaling 2 (Cish2),mouse liver,2.7 fold
same,IL-1 Induction suppressor of cytokine signaling 3 (Cish3),mouse liver,13.5 fold
same,IL-1 Induction transglutaminase (Tgm2),mouse liver,2.2 fold
same,SHP expression,SHP,significantly reduced
CC(C)c1onc(-c2c(Cl)cccc2Cl)c1COc1ccc(/C=C/c2cccc(C(=O)O)c2)c(Cl)c1 [GW 4064],EC50 observed for ICAM-induction vs cited FXR EC50,HepG2 cells; HepG2,comparable
same,ICAM-1 expression,HepG2 cells; [2],induced in a dose dependent manner
same,M-CSF expression,HepG2 cells; [2],induced in a dose dependent manner
same,SHP mRNA,"HepG2 cells; HepG2, 24 hr, positive control",induction
same,cyp7a expression,"HepG2 cells; HepG2, 24 hr, positive control",repression
same,ICAM-1 promoter activity,human ICAM-1 promoter,stimulated
same,ICAM-1 expression in vivo,ICAM-1,induces
